Assay results reported in article PMC6693746 (PLoS Genetics, 2019).

Legend:
[1] = biological target: dopamine receptor DopEcR (Helicoverpa armigera, UniProt A0A386QW71); assay: biochemical
[2] = biological target: T1, dopamine receptor DopEcR (Helicoverpa armigera, UniProt A0A386QW71, T113A/W160A/Y109A/Y68A); assay: saturation binding with isolated mutant receptor, […] enzyme immunoassay (lower Bmax)
T1 construct: DopEcR-M-GFP-His, isolated from Sf9 cells

[3] = biological target: T2, ErGPCR-2 (Helicoverpa armigera, UniProt A0A0U1ZWU3); assay: saturation binding with isolated receptor, […] enzyme immunoassay
T2 construct: ErGPCR-2-GFP-His, 7TM region and added signal peptide (GenBank AKA95280.1), isolated from Sf9 cells
T2 sequence (A0A0U1ZWU3 430-703 limits assumed): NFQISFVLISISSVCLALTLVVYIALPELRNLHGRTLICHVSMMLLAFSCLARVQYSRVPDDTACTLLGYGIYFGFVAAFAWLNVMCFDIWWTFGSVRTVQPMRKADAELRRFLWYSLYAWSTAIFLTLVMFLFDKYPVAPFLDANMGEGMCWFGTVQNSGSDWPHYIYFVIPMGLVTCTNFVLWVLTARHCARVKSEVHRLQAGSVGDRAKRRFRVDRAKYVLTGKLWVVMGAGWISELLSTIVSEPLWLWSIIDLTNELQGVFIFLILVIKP

[4] = biological target: T3, dopamine receptor DopEcR (Helicoverpa armigera, UniProt A0A386QW71); assay: saturation binding with isolated receptor, […] enzyme immunoassay; also displacement of DA (Ki […])
T3 construct: DopEcR-GFP-His (GenBank MG596302), isolated from Sf9 cells
T3 sequence (A0A386QW71 1-343): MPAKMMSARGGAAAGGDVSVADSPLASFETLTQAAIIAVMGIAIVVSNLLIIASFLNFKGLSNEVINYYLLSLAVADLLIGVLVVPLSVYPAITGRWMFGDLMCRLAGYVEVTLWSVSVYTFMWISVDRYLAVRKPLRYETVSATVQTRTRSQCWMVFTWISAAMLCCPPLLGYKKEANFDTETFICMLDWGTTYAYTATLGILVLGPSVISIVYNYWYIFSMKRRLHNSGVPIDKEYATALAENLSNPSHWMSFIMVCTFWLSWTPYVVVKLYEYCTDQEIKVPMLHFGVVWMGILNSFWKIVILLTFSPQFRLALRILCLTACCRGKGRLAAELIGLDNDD

Row | Kd [1] [nM] | SMILES | Kd [2] [nM] | Kd [3] [nM] | Kd [4] [nM]
1 | 448 ± 101 | NCCc1ccc(O)c(O)c1 [DA, dopamine] |  |  | 
2 |  | CC(C)(O)CC[C@@H](O)[C@](C)(O)[C@H]1CC[C@@]2(O)C3=CC(=O)[C@@H]4C[C@@H](O)[C@@H](O)C[C@]4(C)[C@H]3CC[C@]12C [20E, 20-hydroxyecdysone] | 20.5 ± 1.98 | 23.3 ± 3.3 | 18 ± 3
